# Measured values published in the supplement of paper PMC13380429.
# How the values were obtained:
# Details in all cases: 72 h
# [1] = tested on: Caco-2; assay: cell viability relative to DMSO; higher = less toxic
# [2] = tested on: Calu-3; assay: as above
# [3] = tested on: HepG2; assay: as above
# [4] = tested on: U2OS; assay: as above
# [5] = tested on: Vero E6; assay: as above
# [6] = tested on: Calu-3; assay: relative viability EC50 (midpoint between 100% and the lowest measured viability); higher = less toxic
# [7] = tested on: HepG2; assay: as above
# [8] = tested on: U2OS; assay: as above
# [9] = tested on: Vero E6; assay: as above
# [10] = tested on: Caco-2; assay: drug sensitivity score (DSS) for viability; higher = more toxic; extreme values may be limits of the assay
# [11] = tested on: Calu-3; assay: as above
# [12] = tested on: HepG2; assay: as above
# [13] = tested on: U2OS; assay: as above
# [14] = tested on: Vero E6; assay: as above
# [15] = tested on: Caco-2; assay: relative viability EC50 (midpoint between 100% and the lowest measured viability); higher = less toxic
Structure (SMILES),cell viability ([1]; 1 nM),cell viability ([1]; 10 nM),cell viability ([1]; 100 nM),cell viability ([1]; 1000 nM),cell viability ([1]; 10000 nM),cell viability ([2]; 1 nM),cell viability ([2]; 10 nM),cell viability ([2]; 100 nM),cell viability ([2]; 1000 nM),cell viability ([2]; 10000 nM),cell viability ([3]; 1 nM),cell viability ([3]; 10 nM),cell viability ([3]; 100 nM),cell viability ([3]; 1000 nM),cell viability ([3]; 10000 nM),cell viability ([4]; 1 nM),cell viability ([4]; 10 nM),cell viability ([4]; 100 nM),cell viability ([4]; 1000 nM),cell viability ([4]; 10000 nM),cell viability ([5]; 1 nM),cell viability ([5]; 10 nM),cell viability ([5]; 100 nM),cell viability ([5]; 1000 nM),cell viability ([5]; 10000 nM),relative viability EC50 [6],relative viability EC50 [7],relative viability EC50 [8],relative viability EC50 [9],drug sensitivity score [10],drug sensitivity score [11],drug sensitivity score [12],drug sensitivity score [13],drug sensitivity score [14],relative viability EC50 [15]
CC(C)Oc1cccc(-n2c(CCc3c[nH]c4ccc(Br)cc34)nc3ccccc3c2=O)c1,94.9%,101%,101%,99.1%,73.3%,95.6%,93.9%,92.9%,112%,108%,119%,97.9%,107%,85.9%,92.3%,98.6%,103%,98%,102%,97.8%,102%,101%,100%,99.7%,99.3%,> 10 µM,> 10 µM,> 10 µM,> 10 µM,1.2,0,1,0,0,–
CCCCc1nn(-c2ccccc2C(F)(F)F)c(=O)n1Cc1ccc(-c2ccccc2S(=O)(=O)NC(=O)c2sccc2C)cc1,98.6%,110%,102%,100%,94.1%,107%,99.2%,108%,106%,109%,98.8%,115%,111%,108%,102%,–,–,–,–,–,104%,106%,102%,96.8%,104%,> 10 µM,> 10 µM,–,> 10 µM,0,0,0,–,0,> 10 µM
COc1ccccc1CC(=N)N1C[C@@H]2C(=O)CCC(c3ccccc3)(c3ccccc3)[C@@H]2C1,96.6%,96.5%,95.3%,109%,98.4%,94.1%,88.4%,98.3%,109%,86.6%,93%,95.9%,88.2%,106%,105%,103%,95.1%,101%,101%,93.8%,94.3%,101%,94.7%,95.9%,110%,> 10 µM,> 10 µM,> 10 µM,> 10 µM,0,0,0,0,0,> 10 µM
C[C@@H](N)[C@H]1CC[C@H](C(=O)Nc2ccncc2)CC1,101%,95.3%,96.2%,104%,108%,84.6%,97.2%,104%,114%,122%,97.8%,96.8%,95.2%,84.5%,99.3%,99%,102%,91.1%,102%,92%,97.8%,99.1%,96.4%,93.7%,92.2%,> 10 µM,> 10 µM,> 10 µM,> 10 µM,0,0,0,0,0,> 10 µM
Cc1cc(-c2cc(OC(=O)c3ccccc3)ccc2Cl)cc2nnc(Nc3ccc(OCCN4CCCC4)cc3)nc12,98.1%,95.6%,99%,93%,116%,102%,115%,90.9%,102%,104%,108%,107%,95.2%,89%,107%,98.3%,99%,101%,100%,102%,98.4%,97.3%,97.2%,96.9%,112%,> 10 µM,> 10 µM,> 10 µM,> 10 µM,0,0,0,0,0,> 10 µM
Cc1cc(NCCO)nc(-c2ccc(Br)cc2)n1,95.3%,91.8%,104%,93.1%,97%,105%,87.6%,99.5%,109%,98.1%,97.4%,98.9%,86.9%,95.8%,94.3%,99.5%,100%,99.7%,95.8%,99.7%,102%,101%,93.1%,93.9%,84.6%,> 10 µM,> 10 µM,> 10 µM,> 10 µM,0,0,0,0,0.3,> 10 µM
